Test results reported in US20200017495A1, “NOVEL HETEROCYCLIC COMPOUNDS AND THEIR USE IN PREVENTING OR TREATING BACTERIAL INFECTIONS” (priority 2017, published 2020).

System: Klebsiella pneumoniae (KPN) isolates
Test: MIC of compounds alone and combined with antibacterials, broth microdilution (CLSI)
Format: cell-based
How it was run: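 Antibacterial MICs in combination were determined at every compound concentration tested, alongside compound MICs alone. Bacteria grew in cation-adjusted Mueller-Hinton broth starting from 5.10^5 CFU/mL, incubated at 35° C for 16-20 h, and endpoints were the lowest concentrations with no visible growth.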

C=CC1=C(C(=O)O)N2C(=O)[C@@H](NC(=O)/C(=N\OCC(=O)O)c3csc(N)n3)[C@H]2SC1 [FIX, Cefixime]
MIC ATB in combination (KPN 6299, AF2 @ 8 μg/mL): <=0.25 μg/mL
MIC ATB in combination (KPN 6299, AF3 @ 8 μg/mL): <=0.25 μg/mL
MIC ATB in combination (KPN 6299, CLA @ 4 μg/mL): 8 µg/mL
MIC ATB in combination (KPN 110376, AF2 @ 8 μg/mL): <0.25 µg/mL
MIC ATB in combination (KPN 110376, AF3 @ 8 μg/mL): <=0.25 μg/mL
MIC ATB in combination (KPN 110376, CLA @ 4 μg/mL): 128 µg/mL
MIC ATB in combination (KPN 121206, AF2 @ 8 μg/mL): >128 µg/mL
MIC ATB in combination (KPN 121206, AF3 @ 8 μg/mL): >128 µg/mL
MIC ATB in combination (KPN 121206, CLA @ 4 μg/mL): >128 µg/mL
MIC ATB in combination (KPN 131119, AF2 @ 8 μg/mL): <=0.25 μg/mL
MIC ATB in combination (KPN 131119, AF3 @ 8 μg/mL): <=0.25 μg/mL
MIC ATB in combination (KPN 131119, CLA @ 4 μg/mL): >128 µg/mL
MIC ATB in combination (KPN 140513, AF2 @ 8 μg/mL): 8 µg/mL
MIC ATB in combination (KPN 140513, AF3 @ 8 μg/mL): 32 µg/mL
MIC ATB in combination (KPN 140513, CLA @ 4 μg/mL): >128 µg/mL
MIC ATB in combination (KPN 160143, AF2 @ 8 μg/mL): <0.25 µg/mL
MIC ATB in combination (KPN 160143, AF3 @ 8 μg/mL): <0.25 µg/mL
MIC ATB in combination (KPN 160143, CLA @ 4 μg/mL): 2 µg/mL
MIC ATB in combination (KPN 190128, AF2 @ 8 μg/mL): 1 µg/mL
MIC ATB in combination (KPN 190128, AF3 @ 8 μg/mL): 1 µg/mL
MIC ATB in combination (KPN 190128, CLA @ 4 μg/mL): 0.5 µg/mL
MIC ATB in combination (KPN 190270, AF2 @ 8 μg/mL): 0.5 µg/mL
MIC ATB in combination (KPN 190270, AF3 @ 8 μg/mL): 0.5 µg/mL
MIC ATB in combination (KPN 190270, CLA @ 4 μg/mL): 1 µg/mL
MIC ATB in combination (KPN 190425, AF2 @ 8 μg/mL): 0.5 µg/mL
MIC ATB in combination (KPN 190425, AF3 @ 8 μg/mL): <=0.25 μg/mL
MIC ATB in combination (KPN 190425, CLA @ 4 μg/mL): <=0.25 μg/mL
MIC ATB in combination (KPN 190551, AF2 @ 8 μg/mL): <0.25 µg/mL
MIC ATB in combination (KPN 190551, AF3 @ 8 μg/mL): <0.25 µg/mL
MIC ATB in combination (KPN 190551, CLA @ 4 μg/mL): <=0.25 μg/mL
MIC ATB in combination (KPN 200047, AF2 @ 8 μg/mL): <0.25 µg/mL
MIC ATB in combination (KPN 200047, AF3 @ 8 μg/mL): <0.25 µg/mL
MIC ATB in combination (KPN 200047, CLA @ 4 μg/mL): <=0.25 μg/mL
MIC ATB in combination (KPN 200327, AF2 @ 8 μg/mL): <0.25 µg/mL
MIC ATB in combination (KPN 200327, AF3 @ 8 μg/mL): <0.25 µg/mL
MIC ATB in combination (KPN 200327, CLA @ 4 μg/mL): <=0.25 μg/mL
MIC ATB in combination (KPN 260251, AF2 @ 8 μg/mL): <=0.25 μg/mL
MIC ATB in combination (KPN 260251, AF3 @ 8 μg/mL): <=0.25 μg/mL
MIC ATB in combination (KPN 260251, CLA @ 4 μg/mL): 32 µg/mL
MIC ATB in combination (KPN 260252, AF2 @ 8 μg/mL): 16 µg/mL
MIC ATB in combination (KPN 260252, AF3 @ 8 μg/mL): 16 µg/mL
MIC ATB in combination (KPN 260252, CLA @ 4 μg/mL): 128 µg/mL
MIC ATB in combination (KPN 260376, AF2 @ 8 μg/mL): <0.25 µg/mL
MIC ATB in combination (KPN 260376, AF3 @ 8 μg/mL): <0.25 µg/mL
MIC ATB in combination (KPN 260376, CLA @ 4 μg/mL): <=0.25 μg/mL
MIC ATB in combination (KPN 270077, AF2 @ 8 μg/mL): 0.5 µg/mL
MIC ATB in combination (KPN 270077, AF3 @ 8 μg/mL): <=0.25 μg/mL
MIC ATB in combination (KPN 270077, CLA @ 4 μg/mL): 0.5 µg/mL
MIC ATB in combination (KPN 700603, AF2 @ 8 μg/mL): <=0.25 μg/mL
MIC ATB in combination (KPN 700603, AF3 @ 8 μg/mL): 0.5 µg/mL
MIC ATB in combination (KPN 700603, CLA @ 4 μg/mL): 0.5 µg/mL
MIC ATB in combination (KPN ARA, AF2 @ 8 μg/mL): <=0.25 μg/mL
MIC ATB in combination (KPN ARA, AF3 @ 8 μg/mL): <0.25 µg/mL
MIC ATB in combination (KPN ARA, CLA @ 4 μg/mL): 128 µg/mL
MIC ATB in combination (KPN BAA-1898, AF2 @ 8 μg/mL): <=0.25 μg/mL
MIC ATB in combination (KPN BAA-1898, AF3 @ 8 μg/mL): <=0.25 μg/mL
MIC ATB in combination (KPN BAA-1898, CLA @ 4 μg/mL): 64 µg/mL
MIC ATB in combination (KPN LIB, AF2 @ 8 μg/mL): <0.25 µg/mL
MIC ATB in combination (KPN LIB, AF3 @ 8 μg/mL): <0.25 µg/mL
MIC ATB in combination (KPN LIB, CLA @ 4 μg/mL): <=0.25 μg/mL
MIC ATB in combination (KPN UFR22_O, AF2 @ 8 μg/mL): <=0.25 μg/mL
MIC ATB in combination (KPN UFR22_O, AF3 @ 8 μg/mL): <=0.25 μg/mL
MIC ATB in combination (KPN UFR22_O, CLA @ 4 μg/mL): <=0.25 μg/mL
MIC ATB in combination (KPN UFR23, AF2 @ 8 μg/mL): <=0.25 μg/mL
MIC ATB in combination (KPN UFR23, AF3 @ 8 μg/mL): <0.25 µg/mL
MIC ATB in combination (KPN UFR23, CLA @ 4 μg/mL): <=0.25 μg/mL
MIC ATB in combination (KPN UFR24, AF2 @ 8 μg/mL): 0.5 µg/mL
MIC ATB in combination (KPN UFR24, AF3 @ 8 μg/mL): 0.5 µg/mL
MIC ATB in combination (KPN UFR24, CLA @ 4 μg/mL): 64 µg/mL
MIC ATB in combination (KPN UFR25, AF2 @ 8 μg/mL): <0.25 µg/mL
MIC ATB in combination (KPN UFR25, AF3 @ 8 μg/mL): <0.25 µg/mL
MIC ATB in combination (KPN UFR25, CLA @ 4 μg/mL): 64 µg/mL
MIC ATB in combination (KPN UFR27, AF2 @ 8 μg/mL): 8 µg/mL
MIC ATB in combination (KPN UFR27, AF3 @ 8 μg/mL): 8 µg/mL
MIC ATB in combination (KPN UFR27, CLA @ 4 μg/mL): >128 µg/mL
MIC ATB in combination (KPN UFR28, AF2 @ 8 μg/mL): <0.25 µg/mL
MIC ATB in combination (KPN UFR28, AF3 @ 8 μg/mL): 2 µg/mL
MIC ATB in combination (KPN UFR28, CLA @ 4 μg/mL): 64 µg/mL
MIC ATB in combination (KPN UFR33, AF2 @ 8 μg/mL): <=0.25 μg/mL
MIC ATB in combination (KPN UFR33, AF3 @ 8 μg/mL): >128 µg/mL
MIC ATB in combination (KPN UFR33, CLA @ 4 μg/mL): >128 µg/mL
MIC ATB in combination (KPN UFR42, AF2 @ 8 μg/mL): 128 µg/mL
MIC ATB in combination (KPN UFR42, AF3 @ 8 μg/mL): >128 µg/mL
MIC ATB in combination (KPN UFR42, CLA @ 4 μg/mL): >128 µg/mL
MIC ATB in combination (KPN UFR43, AF2 @ 8 μg/mL): <0.25 µg/mL
MIC ATB in combination (KPN UFR43, AF3 @ 8 μg/mL): <0.25 µg/mL
MIC ATB in combination (KPN UFR43, CLA @ 4 μg/mL): >128 µg/mL
MIC ATB in combination (KPN UFR46, AF2 @ 8 μg/mL): >128 µg/mL
MIC ATB in combination (KPN UFR46, AF3 @ 8 μg/mL): >128 µg/mL
MIC ATB in combination (KPN UFR46, CLA @ 4 μg/mL): >128 µg/mL
